The target of one assay is T1, TPα (Homo sapiens, UniProt P21731).
T1 construct: expressed in transfected cells
T1 sequence (P21731 1-343): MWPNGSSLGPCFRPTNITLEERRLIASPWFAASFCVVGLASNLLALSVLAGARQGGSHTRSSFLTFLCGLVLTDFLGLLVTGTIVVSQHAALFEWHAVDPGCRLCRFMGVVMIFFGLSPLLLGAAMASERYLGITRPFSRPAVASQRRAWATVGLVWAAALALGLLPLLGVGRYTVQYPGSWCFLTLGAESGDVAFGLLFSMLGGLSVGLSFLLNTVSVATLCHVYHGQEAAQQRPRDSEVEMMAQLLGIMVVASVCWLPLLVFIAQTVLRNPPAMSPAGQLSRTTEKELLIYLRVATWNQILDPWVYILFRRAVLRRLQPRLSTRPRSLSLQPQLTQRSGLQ
Kind of assay: U46619-induced [Ca2+]i mobilization in HEK.TPα cells. In kind it is cell-based. The following applies: 1 μM U46619, mean ± S.E.M. From the text: (§1) The appropriate functional test for the evaluation of the agonistic and/or antagonistic potency of the compounds of the invention is the determination of calcium flux. Both TPα and […] are coupled to the G-protein Gαq. Therefore, stimulation of these receptors ultimately leads to a release of intracellular calcium ([Ca^2+]i) from intracellular stores. Consequently, the determination of [Ca^2+]i flux represents an appropriate functional test for the evaluation of the agonistic/antagonistic potency of compounds of the invention. Calcium can be measured using a molecule characterized by the covalent combination of a Ca^2+ chelating group and a fluorophore group. The Ca^2+ binding properties of these indicators are formed by the presence of a tetracarboxylic acid core as found for example in EGTA (ethylene glycol bis(2-aminoethyl) tetraacetic acid). Binding of Ca^2+ produces a wavelength shift in either the excitation or emission fluorescence spectra or a change in the emission intensity. Whereas the Ca^2+ binding to EGTA is pH dependent, recent dyes are designed from an EGTA derivative, BAPTA (1, 2-Bis(2-Aminophenoxy)ethane-N, N, N′, N′-Tetraacetic Acid). Loading of these dyes inside cells commonly uses esterified forms (acetoxymethyl ester), which are able to cross the cell membranes and are subsequently hydrolyzed by esterases inside the cell.
(§2) Estimation of [Ca^2+]i flux is calculated from the fluorescence signal (F). For calibration, the maximal fluorescence (Fmax, Ca^2+-saturated form of the dye) as well as minimal fluorescence (Fmin, Ca^2+-free form of the dye) must be determined. These parameters are determined usually in situ after the experiment, for example by subsequent addition to the mixture of a cell-disrupting agent that releases all Ca^2+ such as Triton X100 and a potent Ca^2+-chelating agent such as EGTA. After subtraction of background fluorescence, [Ca^2+]i flux can be calculated for non-ratiometric indicators.
(§3) Intracellular [Ca^2+]i fluxes were measured using a fluorescence plate reader following a modified protocol of Kassack et al., Quantitative comparison of functional screening by measuring intracellular Ca^2+ with radioligand binding at recombinant human dopamine receptors. AAPS Pharmsci, 2002, 4(4); 102-111, in cell lines (e.g. HEK293 or other cell type) endogenously-expressing or over-expressing either TPα, TPβ or any other receptor or protein to be screened.
(§4) By way of example, HEK 293 cells which have been grown for 3-4 days in normal growth media (minimum essential media containing 10% FBS and 2 mmol/l L-glutamine), under normal growth conditions (37° C., in humidified 5% CO2 atmosphere) are washed and harvested in KREBs-HEPES buffer (118 mM NaCl, 4.7 mM KCl, 1.2 mM MgSO4, 1.2 mM KH2PO4, 4.2 mM NaHCO3, 11.7 mM D-glucose, 1.3 mM CaCl2, 10 mM HEPES, pH 7.4). Cells are then incubated with 3 µM Fluo-4 in KREBs-HEPES buffer containing 1% Pluoronic F-127, for 1 hr at 25° C. with agitation. Thereafter, cells are washed in KREBs-HEPES buffer containing 0.5% bovine serum albumin and resuspended at a final concentration of 3×10^5 cells/ml. Approximately, 5.4×10^4 cells per well are plated in a 96-well plate and pre-incubated with test compounds for 10 min prior to measuring the fluorescence intensity at 520 nm for 25 seconds at 1 second intervals to monitor baseline using the Fluoroskan Ascent. Agonist (e.g., 1 μM U46619) is injected into separate wells by the automatic pipettor and fluorescence intensity is monitored at 520 nm for 75 seconds at 1 second intervals. Thereafter, Triton X100 and EGTA are added sequentially where Fmax refers to maximal fluorescence intensity measured after permeabilization of the cells with 2% Triton X100 and Fmin refers to fluorescence intensity measured after addition of 1 mM EGTA.
(§5) The dye Fluo-4 has its excitation peak at 480 nm, in the visible spectra, which spare cells to be damaged by UV (340-360 nm) stimulation and reduces auto-fluorescence of cells. […]

The next assay addresses T2, TPβ (Homo sapiens, UniProt P21731).
T2 construct: expressed in transfected cells
Kind of assay: U46619-induced [Ca2+]i mobilization in HEK.TPβ cells. In kind it is cell-based. Particulars: for Calcium mobilization, Percentage of Control, TPβ / remaining activity at 1 µM: 1 μM U46619, HEK.TPβ, mean ± S.E.M.; for Reduction of U46619-mediated calcium mobilization in HEK.TPβ cells: at 1 & 10 μM concentrations; for remaining activity at 1 µM: read-out: Calcium mobilization, Percentage of Control, TPβ; for inhibition at 0.5 µM: antagonist 0.5 μM, read-out: Inhibition of U46619-mediated responses in HEK.TPβ cells.
From the text: as §1, §2, §3, §4, §5

A further assay has as its system platelets in whole blood. Kind of assay: U46619-mediated platelet aggregation in whole blood (Sysmex haematological analyzer). In kind it is cell-based, human. Particulars: antagonist 0.1 μM, 1 μM U46619 for 3 min. Here is the method:
From an efficacy point of view, this is an important assay and, physiologically, relevant with respect to the therapeutic target.
Initially, the Sysmex haematological analyzer was used to examine the effect of the TP antagonists at a single concentration (0.1 μM) on U46619 (1 μM)-mediated platelet aggregation in whole blood.
FIG. 3 illustrates effects of the TP antagonist compounds on U46619-mediated platelet aggregation. Blood was taken form healthy volunteer by venupuncture into syringes containing 3.8% sodium citrate, 10 μM Indomethacin, such that the ratio of anticoagulant: blood was 1:9. The blood was aliquoted and incubated for 10 min with TP20 and selected NTP compounds, as indicated, where the antagonist were used at 0.1 μM prior to stimulation with 1 μM U46619 for 3 min. The blood was fixed with formaldehyde and platelet numbers counted using the Sysmex haematological analyzer. Data is presented as the mean percentage of control or non-treated blood sample (Percentage of Control; %) and represent data from 3 independent experiments were samples were treated in duplicate.

A word on the inhibition: it is the percentage by which the read-out fell short of the control.

T2 sequence (P21731 1-407 isoform P21731-2): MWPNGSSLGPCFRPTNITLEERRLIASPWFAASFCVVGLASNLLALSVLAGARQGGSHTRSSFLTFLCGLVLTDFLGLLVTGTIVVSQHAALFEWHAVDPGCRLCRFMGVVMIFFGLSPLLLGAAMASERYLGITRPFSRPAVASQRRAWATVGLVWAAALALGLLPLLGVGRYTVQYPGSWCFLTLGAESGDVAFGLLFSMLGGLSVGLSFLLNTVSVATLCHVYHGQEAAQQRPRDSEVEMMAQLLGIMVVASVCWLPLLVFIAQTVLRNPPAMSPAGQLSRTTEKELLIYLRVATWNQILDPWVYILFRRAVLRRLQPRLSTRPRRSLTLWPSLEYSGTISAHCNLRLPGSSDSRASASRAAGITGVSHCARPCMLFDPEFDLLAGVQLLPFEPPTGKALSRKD

With `COc1ccc(-c2cccc(Oc3cc(C)c(C#N)cc3S(=O)(=O)NC(=O)NC(C)(C)C)c2)cc1` [NTP32, N-(tert-butylcarbamoyl)-5-cyano-2-((4′-methoxy-[1,1′-biphenyl]-3-yl)oxy)-4-methyl benzenesulfonamide], the “Calcium mobilization, Percentage of Control, TPα” value stood at 80.3 ± 4.21% at TPα (antagonist 1 μM) and 69.3 ± 2.07% on TPα (antagonist 10 μM). In addition, the “Calcium mobilization, Percentage of Control, TPβ” value on TPβ (antagonist 1 μM) is 93.6 ± 4.06%; at TPβ (antagonist 10 μM) it was 46.2 ± 4.83%.
In the case of `Cc1ccc(Nc2ccc([N+](=O)[O-])cc2S(=O)(=O)NC(=O)NC(C)(C)C)cc1` [BM573, reference compound], the “Reduction of U46619-mediated calcium mobilization in HEK.TPβ cells” value on TPβ is “potently inhibited”.
Regarding `COc1ccc(-c2cccc(Oc3ccc(F)cc3S(=O)(=O)NC(=O)NC(C)(C)C)c2)cc1` [NTP8, N-(tert-butylcarbamoyl)-5-fluoro-2-((4′-methoxy-[1,1′-biphenyl]-3-yl)oxy)benzene-sulfonamide], the remaining activity at 1 µM at TPβ (antagonist 1 μM) was found to be 5.94 ± 1.85%.
For the compound `COc1ccc(-c2cccc(Oc3ccc(S(C)(=O)=O)cc3S(=O)(=O)NC(=O)NC(C)(C)C)c2)cc1` [NTP27, N-(tert-butylcarbamoyl)-2-((4′-methoxy-[1,1′-biphenyl]-3-yl)oxy)-5-(methylsulfonyl) benzenesulfonamide], the “Calcium mobilization, Percentage of Control, TPα” value was found to be 81.1 ± 10.2% at TPα (antagonist 1 μM) and 68.4 ± 4.56% at TPα (antagonist 10 μM). The “Calcium mobilization, Percentage of Control, TPβ” value at TPβ (antagonist 1 μM) is 36.4 ± 3.80%; at TPβ (antagonist 10 μM), 16.3 ± 2.39%.
As for `COc1ccc(-c2cccc(Oc3ccc([N+](=O)[O-])cc3S(=O)(=O)NC(=O)NC(C)(C)C)c2)cc1` [TP20, N-(tert-butylcarbamoyl)-2-((4′-methoxy-[1,1′-biphenyl]-3-yl)oxy)-5-nitrobenzene-sulfonamide], the “Inhibition of the U46619-mediated reduction in platelet number” value in the assay on platelets in whole blood is reported as “almost completely inhibited”. Moreover, at TPβ, the inhibition at 0.5 µM is greater than 50% and the “Reduction of U46619-mediated calcium mobilization in HEK.TPβ cells” value is recorded as “approx. 90%”.
Consider `COc1ccc(-c2cccc(Oc3ccc(C(=O)N4CC(O)C4)cc3S(=O)(=O)NC(=O)NC(C)(C)C)c2)cc1` [NTP23, N-(tert-butylcarbamoyl)-5-(3-hydroxyazetidine-1-carbonyl)-2-((4′-methoxy-[1,1′-biphenyl]-3-yl)oxy)benzenesulfonamide], for which, on TPβ (antagonist 1 μM), the remaining activity at 1 µM was determined as 4.84 ± 2.75%.
For `COc1ccc(-c2cccc(Oc3ccc(C(F)(F)F)cc3S(=O)(=O)NC(=O)NC(C)(C)C)c2)cc1` [NTP3, N-(tert-butylcarbamoyl)-2-((4′-methoxy-[1,1-biphenyl]-3-yl)oxy)-5-(trifluoromethyl) benzenesulfonamide], the results for the “Calcium mobilization, Percentage of Control, TPα” value at TPα (antagonist 1 μM) and on TPα (antagonist 10 μM) were 69.6 ± 5.92% and 41.6 ± 5.45%, respectively. In addition, the “Calcium mobilization, Percentage of Control, TPβ” value on TPβ (antagonist 1 μM) came out at 46.0 ± 5.92%; on TPβ (antagonist 10 μM), 14.8 ± 2.44%.
Regarding `CC(C)(C)NC(=O)NS(=O)(=O)c1cc([N+](=O)[O-])ccc1Oc1cccc(-c2ccc(C(F)(F)F)cc2)c1` [XII], the inhibition at 0.5 µM at TPβ was greater than 50%.
Regarding `COc1ccc(-c2cccc(Oc3ccc(Cl)cc3S(=O)(=O)NC(=O)NC(C)(C)C)c2)cc1` [NTP30, N-(tert-butylcarbamoyl)-5-chloro-2-((4′-methoxy-[1,1′-biphenyl]-3-yl)oxy) benzenesulfonamide], the “Calcium mobilization, Percentage of Control, TPα” value amounted to 52.2 ± 3.90% on TPα (antagonist 1 μM) and 23.3 ± 3.63% at TPα (antagonist 10 μM). Further, the “Calcium mobilization, Percentage of Control, TPβ” value at TPβ (antagonist 1 μM) was 46.5 ± 5.86%; on TPβ (antagonist 10 μM) it was 9.31 ± 1.57%.
